± gives the standard deviation of the averaged measurements.
System: RD
Test: relative viability vs DMSO control (72 h) (fraction); higher = more viable cells
Outline: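 ATPLite readings, expressed as percent growth and averaged over up to triplicate wells, provided relative viability. Before reading, sarcoma cell lines seeded in 384-well plates to reach 80–90% confluence received 2.5 µl of serially diluted compound after 24 h, from source plates of 10 mM to 0.0002 mM. Plates were held 72 h at 37 °C, 5% CO2, with 0.1% DMSO as vehicle and a 5 µM positive control. The data were rescaled to 1 for full and 0 for none.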

Structure (SMILES) | relative viability (0.00017 µM) | relative viability (0.00051 µM) | relative viability (0.00152 µM) | relative viability (0.00457 µM) | relative viability (0.01372 µM) | relative viability (0.04115 µM) | relative viability (0.1235 µM) | relative viability (0.3704 µM) | relative viability (1.111 µM) | relative viability (3.333 µM) | relative viability (10 µM) | relative viability (2 pM) | relative viability (5 pM) | relative viability (15 pM) | relative viability (50 pM) | relative viability (0.00014 µM) | relative viability (0.00041 µM) | relative viability (0.0012 µM) | relative viability (0.0037 µM) | relative viability (0.011 µM) | relative viability (200 fM) | relative viability (600 fM)
COCc1c(-c2cc3cc(C)cc(OC)c3s2)c2c(N)ncnn2c1CN1CCNC(=O)C1 [Rogaratinib] | 1.03 ± 0.022 | 1.09 ± 0.017 | 1.08 ± 0.024 | 1.11 ± 0.037 | 1.09 ± 0.033 | 1.12 ± 0.016 | 1.1 ± 0.057 | 1.08 ± 0.03 | 1.07 ± 0.047 | 0.923 ± 0.042 | 0.569 ± 0.015 |  |  |  |  |  |  |  |  |  |  | 
N#CC[C@H](C1CCCC1)n1cc(-c2ncnc3[nH]ccc23)cn1 [Ruxolitinib] | 0.965 ± 0.052 | 0.972 ± 0.049 | 0.965 ± 0.041 | 0.977 ± 0.059 | 0.97 ± 0.034 | 0.979 ± 0.044 | 0.973 ± 0.051 | 0.965 ± 0.058 | 0.976 ± 0.056 | 0.976 ± 0.092 | 0.895 ± 0.055 |  |  |  |  |  |  |  |  |  |  | 
Cc1cc(C)c(/C=C2\C(=O)Nc3ccccc32)[nH]1 [Semaxanib] | 1.07 ± 0.053 | 1.05 ± 0.042 | 1.06 ± 0.035 | 1.08 ± 0.016 | 1.08 ± 0.028 | 1.088 ± 0.0067 | 1.09 ± 0.037 | 1.09 ± 0.02 | 1.08 ± 0.023 | 1.06 ± 0.046 | 1 ± 0.041 |  |  |  |  |  |  |  |  |  |  | 
Cc1nc(-c2cn3c(n2)-c2ccc(-c4cnn(C(C)(C)C(N)=O)c4)cc2OCC3)n(C(C)C)n1 [Taselisib] | 1.11 ± 0.018 | 1.08 ± 0.041 | 1.07 ± 0.037 | 1.06 ± 0.036 | 1.03 ± 0.028 | 0.888 ± 0.027 | 0.687 ± 0.021 | 0.524 ± 0.017 | 0.444 ± 0.027 | 0.426 ± 0.0056 | 0.36 ± 0.026 |  |  |  |  |  |  |  |  |  |  | 
CN1CCC(COc2cnc(-c3cccc(Cn4nc(-c5cccc(C#N)c5)ccc4=O)c3)nc2)CC1 [Tepotinib] | 1.03 ± 0.049 | 1.1 ± 0.084 | 1.09 ± 0.039 | 1.1 ± 0.055 | 1.12 ± 0.031 | 1.13 ± 0.049 | 1.12 ± 0.093 | 1.14 ± 0.029 | 1.1 ± 0.065 | 1.11 ± 0.031 | 0.941 ± 0.07 |  |  |  |  |  |  |  |  |  |  | 
COc1cc2nccc(Oc3ccc(NC(=O)Nc4cc(C)on4)c(Cl)c3)c2cc1OC [Tivozanib] | 1.12 ± 0.07 | 1.12 ± 0.085 | 1.13 ± 0.009 | 1.13 ± 0.068 | 1.135 ± 0.011 | 1.14 ± 0.016 | 1.14 ± 0.05 | 1.18 ± 0.052 | 1.169 ± 0.0077 | 1.17 ± 0.018 | 0.814 ± 0.019 |  |  |  |  |  |  |  |  |  |  | 
C[C@@H]1CCN(C(=O)CC#N)C[C@@H]1N(C)c1ncnc2[nH]ccc12 [Tofacitinib] | 1.05 ± 0.051 | 1.08 ± 0.064 | 1.1 ± 0.072 | 1.12 ± 0.055 | 1.13 ± 0.068 | 1.13 ± 0.063 | 1.13 ± 0.09 | 1.11 ± 0.029 | 1.14 ± 0.065 | 1.14 ± 0.051 | 1.13 ± 0.056 |  |  |  |  |  |  |  |  |  |  | 
COc1cc2c(cc1O)CCN[C@]21CS[C@@H]2c3c(OC(C)=O)c(C)c4c(c3[C@H](COC1=O)N1[C@@H]2[C@H]2c3c(cc(C)c(OC)c3O)C[C@@H]([C@@H]1O)N2C)OCO4 [Trabectedin] |  |  |  |  |  |  |  |  |  |  |  | 1.08 ± 0.055 | 1.08 ± 0.068 | 1.08 ± 0.048 | 1 ± 0.045 | 0.678 ± 0.022 | 0.166 ± 0.14 | 0.158 ± 0.0037 | 0.128 ± 0.0033 | 0.104 ± 0.01 | 1.1 ± 0.043 | 1.08 ± 0.015
CC(=O)Nc1cccc(-n2c(=O)n(C3CC3)c(=O)c3c(Nc4ccc(I)cc4F)n(C)c(=O)c(C)c32)c1 [Trametinib] | 1.08 ± 0.027 | 1.07 ± 0.064 | 0.971 ± 0.099 | 0.838 ± 0.044 | 0.669 ± 0.07 | 0.608 ± 0.051 | 0.584 ± 0.032 | 0.558 ± 0.038 | 0.556 ± 0.03 | 0.523 ± 0.04 | 0.477 ± 0.022 |  |  |  |  |  |  |  |  |  |  | 
Cc1cc(Nc2ncnc3ccc(NC4=NC(C)(C)CO4)cc23)ccc1Oc1ccn2ncnc2c1 [Tucatinib] | 1.08 ± 0.071 | 1.09 ± 0.076 | 1.11 ± 0.04 | 1.08 ± 0.04 | 1.1 ± 0.026 | 1.1 ± 0.017 | 1.07 ± 0.067 | 1.11 ± 0.073 | 1.14 ± 0.081 | 1.18 ± 0.063 | 1.15 ± 0.061 |  |  |  |  |  |  |  |  |  |  | 
